Results on 1 molecule are retold here after patent publication US11723886B2, “Targeting ocular diseases with novel APE1/Ref-1 inhibitors” (Indiana University Research and Technology Corporation, priority 2018, dated 2023).

Entries after “also recorded” stand apart in the source; their conditions may differ.

The test system of series [1] is laser-induced choroidal neovascularization.
The target in series [2] is Ref-1/APE1 endonuclease activity (Homo sapiens, UniProt P27695). The conditions noted are these: cited from earlier work.
Ref-1/APE1 endonuclease activity, sequence (P27695 whole entry): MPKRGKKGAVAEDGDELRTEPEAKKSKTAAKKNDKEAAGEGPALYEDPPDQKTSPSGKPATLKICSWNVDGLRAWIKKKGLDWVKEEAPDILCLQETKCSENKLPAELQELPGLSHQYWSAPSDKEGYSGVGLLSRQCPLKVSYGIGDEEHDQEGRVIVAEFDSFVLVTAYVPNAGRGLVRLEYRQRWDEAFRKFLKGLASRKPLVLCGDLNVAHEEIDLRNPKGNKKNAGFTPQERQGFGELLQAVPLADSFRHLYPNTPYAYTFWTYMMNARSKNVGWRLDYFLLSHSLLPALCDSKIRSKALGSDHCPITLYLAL
The test system of series [3] is retinal and choroidal endothelial cells. The conditions noted are these: cited from earlier work.
Series [4] has as its system retinal neovascularization. The conditions noted are these: delivered intravitreally; cited from earlier work.
The subject of series [5] is laser-induced choroidal neovascularization. The conditions noted are these: delivered intravitreally; cited from earlier work.
Series [6] relates to APE1 repair activity in neurons. The conditions noted are these: cited from earlier work.
Series [7] concerns NF-κB and HIF-1α activity. The conditions noted are these: retinal pigment epithelial cells; concomitant reduction in VEGF expression; cited from earlier work.
The test system of series [8] is total vessel density and VEGF expression. The conditions noted are these: stroke in type one diabetes mellitus rats; cited from earlier work.

Regarding `CCCCCCCCC/C(=C\C1=C(C)C(=O)C(OC)=C(OC)C1=O)C(=O)O` [APX3330], the “intraocular or systemic toxicity in vivo” value in series [1] (i.p. dosing in L-CNV mice) is “not observed obvious intraocular or systemic toxicity”. Besides, the L-CNV volume result in series [1] (i.p., 50 mg/kg twice daily, 5 days on/two days off, two weeks) is “significantly reduced L-CNV volume”. The “effect on endonuclease / APE1 activity” value in series [2] is reported as “does not affect the protein's endonuclease activity; also recorded: do not inhibit APE1 activity”. Besides, in series [3], the “in vitro angiogenesis (proliferation, migration, tube formation)” value is reported as “block in vitro angiogenesis”. Further, the “neovascularization, VLDLR knockout mouse” value in series [4] was “reduced neovascularization”. The “neovascularization, L-CNV” value in series [5] is “reduced neovascularization”. In addition, in series [6], the “APE1 repair activity in neurons” value is reported as “can enhance APE1 repair activity”. In addition, the “NF-κB and HIF-1α activity” value in series [7] is “reduced both NF-κB and HIF-1α activity”. Further, the “total vessel density and VEGF expression” value in series [8] is “significantly decreased total vessel density and VEGF expression”.
